Consider two compounds from PMC5106528, “High-Throughput Toxicity and Phenotypic Screening of 3D Human Neural Progenitor Cell Cultures on a Microarray Chip Platform” (Stem Cell Reports, 2016).

pIC50: −log10 of the molar value. Read-outs that look alike come from different tables or passages of the source. Marks after values point to notes of the source that are not given here. Bounds are passed on as bounds.

Data set [1] concerns undifferentiated ReNcell VM NPCs. Put plainly: cells. The settings on record: for pIC50: read-out: Viability Effects Undifferentiated IC50. As for the experimental part:
(§1) On-chip cultures of undifferentiated and 10-day differentiated NPCs were stamped with WellChips filled with compound-containing solutions and incubated for 72 hr prior to viability assessment. Vehicle-control normalized viabilities were plotted against compound concentration to generate dose-response plots (Figures 5A and S4). […] The sigmoidal fits for undifferentiated and differentiating NPCs were compared to assess whether differential sensitivities (i.e., different IC50 values) existed for the screened compounds.
(§2) Cell viability was determined in 3D on-chip cultures using a mammalian cell viability assay (LIVE/DEAD, Invitrogen). Prior to the assay, dead cell controls were prepared with 30 min incubation in a WellChip containing either […] 0.5% (w/v) saponin-DMEM/F12 medium in its microwells. […] After staining, PillarChips were rinsed twice with warm DPBS and incubated in DPBS containing 50 mM trehalose (Sigma) for 10 min before rapid drying with nitrogen and storage in the dark. Dried PillarChips were imaged with a Thermo Scientific Cellomics ArrayScan VTI high-content system.
(§3) Undifferentiated and differentiated microchip cultures were prepared as described above. Chemicals were purchased from Sigma or the NIH Small Molecule Repository (Table S2). Concentrated stocks were prepared and diluted into ReNcell Maintenance Medium to prepare the highest screened concentration solution for each compound. Four-fold serial dilutions were made in ReNcell Maintenance Medium, with all solutions having a final concentration of 0.5% or 1% DMSO (v/v) and 20 μg/mL Matrigel. For undifferentiated cultures, the solutions also contained 20 ng/mL of EGF and FGF2. These solutions were printed into WellChips, covered with a gas-permeable membrane, and warmed at 37°C for at least 5 min before stamping with cells. Each WellChip contained six compounds each at six concentrations (n = 10 biological replicates for each concentration) and the appropriate medium containing 0.5% or 1% DMSO for vehicle and dead controls (n = 32 biological replicates per control). PillarChip cultures were incubated with compounds for 72 hr with daily medium exchange to freshly prepared WellChips containing compounds at the appropriate concentrations. […] On-chip toxicity screens were repeated three times for undifferentiated and differentiated cultures. […]

Data set [2] deals with differentiating ReNcell VM NPCs. The data set is described as follows: cells. As to conditions: for pIC50: read-out: Viability Effects Differentiating IC50. As for the experimental part: as §1, §2, §3
Data set [3] shares this test system. Put plainly: cells. The settings on record: differentiating, 72 hr exposure, EdU for the final 24 hr, sigmoidal fit. The class given is cell-based, human. From the text:
(§4) Differential toxic effects could be explained, in part, as a consequence of the different proliferative states between the undifferentiated and differentiating NPCs. To this end, the thymidine analog, 5-ethynyl-2′-deoxyuridine (EdU), was used to detect actively proliferating cells on-chip following exposure to compounds or vehicle control to determine dose-response effects on proliferation (Figures 5B and S5), and sigmoidal curves were fit, when appropriate, to obtain IC50 values (Table 1). We found ∼60% of undifferentiated NPCs incorporated EdU over a 24-hr period as opposed to ∼3% of differentiating cultures.
(§5) Undifferentiated and differentiating cultures were screened for toxicity as described previously, except that after the first 48 hr of exposure 10 μM EdU (Click-iT EdU, Invitrogen) was added to the compound-containing medium for the final 24 hr. After 72 hr, on-chip cultures were fixed and processed as described previously for on-chip immunofluorescence; however, instead of antibody staining the cultures were incubated with solution containing Alexa Fluor 488-azide for 30 min as specified in the product manual. Cultures were then rinsed with DPBS for 30 min, incubated in DPBS with Hoechst 33342 (5 μg/mL) for 30 min, and washed in DPBS for 30 min before proceeding with a trehalose wash and drying as described previously. Nuclei were selected using Cellomics software from blue channel images to create a mask, which was used for identification of fluorescently labeled EdU in the green channel for quantification of actively proliferating cells over the 24-hr EdU exposure.

Data set [4] relates to undifferentiated ReNcell VM NPCs. The data set is described as follows: On-chip proliferation assay (EdU incorporation), undifferentiated NPCs. In kind it is cell-based, human. As to conditions: undifferentiated, 72 hr exposure, EdU for the final 24 hr, sigmoidal fit.
From the text: as §4, §5

Where [5] appears, read: undifferentiated (+EGF/FGF2), 72 hr exposure, 1% Matrigel on-chip, sigmoidal fit.
The mark [6] stands for this setting: 10-day differentiated (−EGF/FGF2), 72 hr exposure, 1% Matrigel on-chip, sigmoidal fit.

For `CC(=O)Nc1ccc(O)cc1` [Acetaminophen], in data set [1], the “Cytotoxicity (in words)” value is reported as “no cytotoxicity at functionally relevant concentrations”. Moreover, the pIC50 was 2.85 in data set [1] (Homo sapiens, ReNcell VM, 72 h); 1.74 in data set [2] (Homo sapiens, ReNcell VM); 1.74 in data set [3] (Homo sapiens, ReNcell VM, read-out: Proliferation Effects Differentiating IC50); 3.00 in data set [4] (Homo sapiens, ReNcell VM, read-out: Proliferation Effects Undifferentiating IC50). For the same compound, the IC50 in data set [1] (Homo sapiens, ReNcell VM, 72 h, read-out: Viability Effects Undifferentiated log(IC50 ± SEM) (converted)) was 1260 µM; in data set [2] (Homo sapiens, ReNcell VM, read-out: Viability Effects Differentiating log(IC50 ± SEM) (converted)), 20000 µM; in data set [3] (Homo sapiens, ReNcell VM, read-out: Proliferation Effects Differentiating log(IC50 ± SEM) (converted)) it was 18200 µM; in data set [4] (Homo sapiens, ReNcell VM, read-out: Proliferation Effects Undifferentiating log(IC50 ± SEM) (converted)), 1040 µM. Moreover, the “Normalized viability at Cmax, Undifferentiated, Mean ± SEM” value in data set [1] (human, 72 h) was -0.16 ± 0.07. Also, in data set [2] (human, 72 h), the “Normalized viability at Cmax, Differentiating, Mean ± SEM” value is on record as -0.1 ± 0.03.
In the case of `Nc1ccn([C@@H]2O[C@H](CO)[C@@H](O)[C@@H]2O)c(=O)n1` [Cytosine Arabinoside], in data set [1], the “Normalized viability at Cmax, Undifferentiated, Mean ± SEM” value came to 0.40 ± 0.03. In addition, in data set [1] (setting [5]), the pIC50 is 6.48 and the “Viability Effects Undifferentiated log(IC50 ± SEM)” value is on record as −0.48 ± 0.17 ^b log(μM). Besides, the “Normalized viability at Cmax, Differentiating, Mean ± SEM” value in data set [2] stood at 0.47 ± 0.12. In addition, in data set [2] (setting [6]), the “Viability Effects Differentiating log(IC50 ± SEM)” value is given as 0.55 ± 0.55 log(μM) and the pIC50 was 5.46. The “Proliferation Effects Differentiating log(IC50 ± SEM)” value in data set [3] was < −1 log(μM). For the same compound, the “Proliferation Effects Undifferentiating log(IC50 ± SEM)” value in data set [4] was < −1 log(μM).
